Source: the Kinase Knowledgebase extract (Sharma et al. 2016)

Assays:
MAPK14 [1] = biological target: MAPK14 (UniProt Q16539); assay: MAPK14 (CSBP) Binding Inhibition
MAPK14 [2] = biological target: MAPK14 (UniProt Q16539); assay: TNF Inhibition (In Vivo Assay)

Sequence of MAPK14 (Q16539 whole entry, looked up): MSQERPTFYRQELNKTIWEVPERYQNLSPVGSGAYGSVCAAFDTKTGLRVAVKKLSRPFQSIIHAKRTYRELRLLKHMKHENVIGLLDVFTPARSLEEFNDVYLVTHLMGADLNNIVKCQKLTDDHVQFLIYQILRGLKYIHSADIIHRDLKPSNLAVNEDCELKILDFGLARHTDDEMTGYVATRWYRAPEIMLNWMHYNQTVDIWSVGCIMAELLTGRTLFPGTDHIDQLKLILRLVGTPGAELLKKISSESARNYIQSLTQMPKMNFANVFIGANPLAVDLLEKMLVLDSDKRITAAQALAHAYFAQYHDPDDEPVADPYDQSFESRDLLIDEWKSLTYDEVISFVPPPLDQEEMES

Row | IC50 (MAPK14 [1]) [µM] | IC50 (MAPK14 [2]) [µM] | Structure (SMILES)
1 | < 50 | < 50 | COc1nccc(-c2c(-c3ccc(F)cc3)ncn2[C@H]2CC[C@@](C)(O)CC2)n1.COc1nccc(-c2c(-c3ccc(F)cc3)ncn2[C@H]2CC[C@](C)(O)CC2)n1
2 | < 50 | – | CSc1nccc(-c2c(-c3ccc(F)cc3)ncn2[C@H]2CC[C@H](O)CC2)n1
3 | < 50 | < 50 | COc1nccc(-c2c(-c3ccc(F)cc3)ncn2C2CCC(=O)CC2)n1

Further lines, the molecule ahead of its results:

Row | Structure (SMILES) | IC50 (MAPK14 [1]) [µM] | IC50 (MAPK14 [2]) [µM]
4 | CC(C)Oc1nccc(-c2c(-c3ccc(F)cc3)ncn2C2CCC(O)CC2)n1 (stereo unspecified) | < 50 | < 50
5 | CC(C)Oc1nccc(-c2c(-c3ccc(F)cc3)ncn2C2CCC(=O)CC2)n1 | < 50 | < 50
6 | CSc1nccc(-c2c(-c3ccc(F)cc3)ncn2C2CCC(=O)CC2)n1 | < 50 | –
7 | O=C1CCC(n2cnc(-c3ccc(F)cc3)c2-c2ccnc(O)n2)CC1 | < 50 | –
